Test results as given in the supplement of paper PMC10627819.

Key:
B. subtilis 168 [1] = assay: fitness (endpoint OD595 vs no drug) (fraction); higher = more growth
Outline: (§1)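 Background-subtracted growth curves were the basis for fitness, taken as the optical density at entry into stationary phase over the robust mean of no-drug control wells. A cap of 1 was applied. The curves came from OD595 readings every 30 min for 14 h at 37 °C, in 384-well plates seeded at OD595 0.01 with 30 µl, or 55 µl for S. pneumoniae.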

S. aureus DSM 20231 = assay: Bliss interaction score (quartile over a dose matrix) (fitness difference); higher = more antagonism (negative = synergy)
Outline: (§2)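 The Bliss score is observed minus expected fitness, where expected fitness is the product of the single-drug fitness values inferred from the combination data. Fitness is the OD595 at the onset of stationary phase over the plate's robust no-drug mean, capped at 1. Scores are summarised by quartiles over technical, biological and donor/recipient replicates.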

S. pneumoniae D39V [2] = assay: as above
Outline: as §2

B. subtilis 168 [3] = assay: as above
Outline: as §2

S. aureus Newman = assay: as above
Outline: as §2

S. pneumoniae D39V [4] = assay: fitness (endpoint OD595 vs no drug) (fraction); higher = more growth
Outline: as §1
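For Bliss interaction score (quartile over a dose matrix) in this document: first quartile when negative (synergy) and third quartile when positive (antagonism).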

CC[C@H]1OC(=O)[C@H](C)[C@@H](O[C@H]2C[C@@](C)(OC)[C@@H](O)[C@H](C)O2)[C@H](C)[C@@H](O[C@@H]2O[C@H](C)C[C@H](N(C)C)[C@H]2O)[C@](C)(O)C[C@@H](C)CN(C)[C@H](C)[C@@H](O)[C@]1(C)O [Azithromycin] + CCC(C)C1C(=O)NC(=C)C(=O)NC(C(=O)NC(CSCC(C(=O)N1)NC(=O)/C(=C/C)/NC(=O)C(C(C)CC)N)C(=O)NC2C(SCC(NC(=O)CNC(=O)C3CCCN3C2=O)C(=O)NC(CCCCN)C(=O)NC4C(SCC(NC(=O)CNC(=O)C(NC(=O)C(NC(=O)C(NC(=O)CNC4=O)C)CC(C)C)CCSC)C(=O)NC(CC(=O)N)C(=O)NC(CCSC)C(=O)NC(CCCCN)C(=O)NC5C(SCC6C(=O)NC(C(=O)NC(CSC(C(C(=O)N6)NC(=O)C(NC5=O)C)C)C(=O)NC(CO)C(=O)NC(C(C)CC)C(=O)NC(CC7=CN=CN7)C(=O)NC(C(C)C)C(=O)NC(=C)C(=O)NC(CCCCN)C(=O)O)CC8=CN=CN8)C)C)C)CC(C)C [Nisin]
fitness, B. subtilis 168 [1], main component drawn
Conditions	partner 0.5 µg/mL	partner 1 µg/mL	partner 2 µg/mL
first compound 0.25 µg/mL	0.904	0.837	0.724
first compound 0.5 µg/mL	0.862	0.805	0.636

fitness, B. subtilis 168 [1], one replicate, main component drawn
Conditions	partner 1.25 µg/mL	partner 1.6 µg/mL	partner 2.5 µg/mL	partner 3.2 µg/mL	partner 4 µg/mL	partner 5 µg/mL	partner 6.4 µg/mL	partner 8 µg/mL	partner 16 µg/mL
first compound 0.25 µg/mL	–	–	–	–	0.0321	–	–	0.0145	0.0145
first compound 0.5 µg/mL	0.889	0.611	0.0285	0.028	0.0372	0.0256	0.0317	0.0317	0.0189
first compound 1 µg/mL	0.844	0.038	0.415	0.0169	0.0347	0.0235	0.0188	0.0359	0.0271
first compound 2 µg/mL	0.358	0.023	0.0636	0.0193	–	0.0032	0.0113	–	–

main component drawn
Conditions	Bliss interaction score
B. subtilis 168 [3]	0.0397
S. aureus DSM 20231	-0.195
S. aureus Newman	-0.113
S. pneumoniae D39V [2]	-0.0414

CC[C@H]1OC(=O)[C@H](C)[C@@H](O[C@H]2C[C@@](C)(OC)[C@@H](O)[C@H](C)O2)[C@H](C)[C@@H](O[C@@H]2O[C@H](C)C[C@H](N(C)C)[C@H]2O)[C@](C)(O)C[C@@H](C)CN(C)[C@H](C)[C@@H](O)[C@]1(C)O [Azithromycin] + CN(C)C(=O)C(CCN1CCC(O)(c2ccc(Cl)cc2)CC1)(c1ccccc1)c1ccccc1 [Loperamide]
Conditions	fitness
B. subtilis 168 [1], first compound 1 µg/mL, partner 50 µg/mL	0.041

Conditions	Bliss interaction score
B. subtilis 168 [3]	0.137
S. aureus DSM 20231	0.344
S. aureus Newman	0.101
S. pneumoniae D39V [2]	0.131

CC[C@H]1OC(=O)[C@H](C)[C@@H](O[C@H]2C[C@@](C)(OC)[C@@H](O)[C@H](C)O2)[C@H](C)[C@@H](O[C@@H]2O[C@H](C)C[C@H](N(C)C)[C@H]2O)[C@](C)(O)C[C@@H](C)CN(C)[C@H](C)[C@@H](O)[C@]1(C)O [Azithromycin] + CO[C@@H]1[C@@H](OC(N)=O)[C@@H](O)[C@H](Oc2ccc3c(O)c(NC(=O)c4ccc(O)c(CC=C(C)C)c4)c(=O)oc3c2C)OC1(C)C [Novobiocin]
fitness, B. subtilis 168 [1]
Conditions	partner 0.0125 µg/mL	partner 0.025 µg/mL	partner 0.05 µg/mL	partner 0.1 µg/mL	partner 0.2 µg/mL
first compound 0.25 µg/mL	0.897	0.888	0.894	0.954	0.931
first compound 0.5 µg/mL	0.867	0.814	0.868	0.865	0.878
first compound 1 µg/mL	0.642	0.63	–	–	–

fitness, B. subtilis 168 [1], one replicate
Conditions	first compound 0.5 µg/mL	first compound 1 µg/mL	first compound 2 µg/mL
partner 0.125 µg/mL	0.772	0.765	0.347
partner 0.25 µg/mL	0.781	0.597	0.167
partner 0.5 µg/mL	0.507	0.473	0.0776

Conditions	Bliss interaction score
B. subtilis 168 [3]	0.0746
S. aureus DSM 20231	0.0496
S. aureus Newman	0.157
S. pneumoniae D39V [2]	-0.0647

CC[C@H]1OC(=O)[C@H](C)[C@@H](O[C@H]2C[C@@](C)(OC)[C@@H](O)[C@H](C)O2)[C@H](C)[C@@H](O[C@@H]2O[C@H](C)C[C@H](N(C)C)[C@H]2O)[C@](C)(O)C[C@@H](C)CN(C)[C@H](C)[C@@H](O)[C@]1(C)O [Azithromycin] + C[C@H]1COc2c(N3CCN(C)CC3)c(F)cc3c(=O)c(C(=O)O)cn1c23 [Levofloxacin]
fitness, B. subtilis 168 [1]
Conditions	partner 0.002 µg/mL	partner 0.0039 µg/mL	partner 0.0078 µg/mL	partner 0.0312 µg/mL	partner 0.0625 µg/mL	partner 0.125 µg/mL
first compound 0.25 µg/mL	0.96	0.945	0.969	0.0317	0.0311	0.0281
first compound 0.5 µg/mL	0.848	0.808	0.862	0.0211	0.0396	0.0302
first compound 1 µg/mL	–	–	–	0.0198	0.0226	0.0241

fitness, B. subtilis 168 [1], one replicate
Conditions	first compound 0.5 µg/mL	first compound 1 µg/mL	first compound 2 µg/mL
partner 0.001 µg/mL	0.925	0.906	0.209
partner 0.002 µg/mL	–	–	0.029
partner 0.0039 µg/mL	–	–	0.0299

Conditions	Bliss interaction score
B. subtilis 168 [3]	0.0413
S. aureus DSM 20231	0.0911
S. aureus Newman	0.0787
S. pneumoniae D39V [2]	0.0528

CC[C@H]1OC(=O)[C@H](C)[C@@H](O[C@H]2C[C@@](C)(OC)[C@@H](O)[C@H](C)O2)[C@H](C)[C@@H](O[C@@H]2O[C@H](C)C[C@H](N(C)C)[C@H]2O)[C@](C)(O)C[C@@H](C)CN(C)[C@H](C)[C@@H](O)[C@]1(C)O [Azithromycin] + C[C@H]1c2cccc(O)c2C(=O)C2=C(O)[C@]3(O)C(=O)C(C(N)=O)=C(O)[C@@H](N(C)C)[C@@H]3[C@@H](O)[C@@H]21 [Doxycycline]
Conditions	fitness
B. subtilis 168 [1], first compound 0.25 µg/mL, partner 0.02 µg/mL	0.816

B. subtilis 168 [1], first compound 2 µg/mL, one replicate
Conditions	fitness
partner 0.02 µg/mL	0.0856
partner 0.04 µg/mL	0.0565
partner 0.08 µg/mL	0.115

Conditions	Bliss interaction score
B. subtilis 168 [3]	-0.362
S. aureus DSM 20231	-0.261
S. aureus Newman	-0.153
S. pneumoniae D39V [2]	-0.139

CC1=C(C(=O)O)N2C(=O)[C@@H](NC(=O)[C@H](N)c3ccccc3)[C@H]2SC1 [Cephalexin] + CC(=O)NC[C@H]1CN(c2ccc(N3CCOCC3)c(F)c2)C(=O)O1 [Linezolid]
fitness, one replicate
Conditions	first compound 0.125 µg/mL	first compound 0.25 µg/mL	first compound 0.5 µg/mL	first compound 1 µg/mL
B. subtilis 168 [1], partner 0.0625 µg/mL	–	0.901	0.932	0.877
B. subtilis 168 [1], partner 0.125 µg/mL	–	–	–	0.66
B. subtilis 168 [1], partner 0.25 µg/mL	–	–	–	0.0828
S. pneumoniae D39V [4], partner 0.2 µg/mL	0.778	0.84	0.829	–
S. pneumoniae D39V [4], partner 0.4 µg/mL	0.667	0.707	0.726	–
S. pneumoniae D39V [4], partner 0.8 µg/mL	0.222	0.36	0.375	–

fitness
Conditions	first compound 0.125 µg/mL	first compound 0.25 µg/mL	first compound 0.5 µg/mL	first compound 1 µg/mL	first compound 2 µg/mL	first compound 4 µg/mL
B. subtilis 168 [1], partner 0.125 µg/mL	0.569	0.582	0.601	–	–	–
B. subtilis 168 [1], partner 0.25 µg/mL	0.121	0.119	0.117	–	–	–
B. subtilis 168 [1], partner 0.5 µg/mL	0.0468	0.0463	0.0421	–	–	–
S. pneumoniae D39V [4], partner 0.105 µg/mL	–	–	–	0.606	0.0569	0.0509
S. pneumoniae D39V [4], partner 0.21 µg/mL	–	–	–	0.475	0.0291	0
S. pneumoniae D39V [4], partner 0.42 µg/mL	–	–	–	0.332	0.0014	0.0511

Conditions	Bliss interaction score
B. subtilis 168 [3]	0.0768
S. aureus DSM 20231	0.0858
S. aureus Newman	0.106
S. pneumoniae D39V [2]	-0.075

CC1=C(C(=O)O)N2C(=O)[C@@H](NC(=O)[C@H](N)c3ccccc3)[C@H]2SC1 [Cephalexin] + CO[C@@H]1[C@@H](OC(N)=O)[C@@H](O)[C@H](Oc2ccc3c(O)c(NC(=O)c4ccc(O)c(CC=C(C)C)c4)c(=O)oc3c2C)OC1(C)C [Novobiocin]
fitness, B. subtilis 168 [1]
Conditions	first compound 0.125 µg/mL	first compound 0.25 µg/mL	first compound 0.5 µg/mL
partner 0.0125 µg/mL	0.97	0.978	0.98
partner 0.025 µg/mL	0.918	0.936	0.93
partner 0.05 µg/mL	0.984	0.972	0.97

fitness, B. subtilis 168 [1], one replicate
Conditions	first compound 0.25 µg/mL	first compound 0.5 µg/mL	first compound 1 µg/mL
partner 0.125 µg/mL	0.95	0.839	0.946
partner 0.25 µg/mL	0.857	0.866	0.926
partner 0.5 µg/mL	0.603	0.49	0.593

Conditions	Bliss interaction score
B. subtilis 168 [3]	0.0738
S. aureus DSM 20231	0.0648
S. aureus Newman	0.0794
S. pneumoniae D39V [2]	-0.0986

CC1=C(C(=O)O)N2C(=O)[C@@H](NC(=O)[C@H](N)c3ccccc3)[C@H]2SC1 [Cephalexin] + COc1cc(Cc2cnc(N)nc2N)cc(OC)c1OC [Trimethoprim]
fitness, B. subtilis 168 [1]
Conditions	first compound 0.125 µg/mL	first compound 0.25 µg/mL	first compound 0.5 µg/mL	first compound 1 µg/mL
partner 0.25 µg/mL	–	0.685	–	0.699
partner 0.5 µg/mL	0.445	0.465	0.517	0.528

fitness, B. subtilis 168 [1], one replicate
Conditions	partner 0.1 µg/mL	partner 0.125 µg/mL	partner 0.2 µg/mL	partner 0.4 µg/mL	partner 1 µg/mL	partner 2 µg/mL
first compound 0.125 µg/mL	–	–	–	–	0.48	0.501
first compound 0.25 µg/mL	0.915	0.749	0.791	0.533	0.402	0.418
first compound 0.5 µg/mL	0.884	0.758	0.809	0.565	0.372	0.509
first compound 1 µg/mL	0.879	0.759	0.86	0.572	–	–

Conditions	Bliss interaction score
B. subtilis 168 [3]	0.113
S. aureus DSM 20231	-0.058
S. aureus Newman	-0.0582
S. pneumoniae D39V [2]	0.0759

CNC(C)C1CCC(N)C(OC2C(N)CC(N)C(OC3OCC(C)(O)C(NC)C3O)C2O)O1 (stereo unspecified) [Gentamicin] + CO[C@@H]1[C@@H](OC(N)=O)[C@@H](O)[C@H](Oc2ccc3c(O)c(NC(=O)c4ccc(O)c(CC=C(C)C)c4)c(=O)oc3c2C)OC1(C)C [Novobiocin]
fitness, B. subtilis 168 [1], main component drawn
Conditions	first compound 0.0625 µg/mL	first compound 0.125 µg/mL	first compound 0.25 µg/mL
partner 0.0125 µg/mL	0.915	–	0.0845
partner 0.025 µg/mL	0.938	0.692	0.0329
partner 0.05 µg/mL	0.998	0.705	–

fitness, B. subtilis 168 [1], one replicate, main component drawn
Conditions	partner 0.1 µg/mL	partner 0.125 µg/mL	partner 0.2 µg/mL	partner 0.25 µg/mL	partner 0.5 µg/mL
first compound 0.0625 µg/mL	≥ 1	0.907	≥ 1	0.987	0.515
first compound 0.125 µg/mL	0.946	0.501	0.978	0.302	0.111
first compound 0.25 µg/mL	0.152	0.056	0.476	0.0399	0.0406

main component drawn
Conditions	Bliss interaction score
B. subtilis 168 [3]	0.137
S. aureus DSM 20231	-0.0708
S. aureus Newman	0.0684
S. pneumoniae D39V [2]	0.0522
